Measured values reported in patent publication US20100184675A1, “USE OF GLUCAGON (1-29) ALONE OR IN COMBINATION WITH NEUROPEPTIDE W30 AS A THERAPEUTIC AGENT” (priority 2007, published 2010).
Ends that are not written are not given here.

Tested on: drug-resistant Mycobacterium tuberculosis
Test: Mycobacterium tuberculosis assay
Assay type: cell-based
Conditions: 10 micrograms per ml; seven days; strain resistant to PAS, streptomycin, INH; combination 0.95:1.05 mole and all other molar ratios from 1:100 to 100:1

Trp-Tyr-Lys-His-Val-Ala-Ser-Pro-Arg-Tyr-His-Thr-Val-Gly-Arg-Ala-Ala-Gly-Leu-Leu-Met-Gly-Leu-Arg-Arg-Ser-Pro-Tyr-Leu-Trp-OH (WYKHVASPRYHTVGRAAGLLMGLRRSPYLW-OH) [Peptide 2, Neuropeptide W-30, commercially available known peptide]
inhibition of the growth of Mycobacterium tuberculosis: 100%
